Test results from patent US9637472B2, “Substituted 6,5-fused bicyclic heteroaryl compounds” (Epizyme, Inc., priority 2011, dated 2017).

Target: EZH2 (Homo sapiens (Human), UniProt Q15910)
Assay: PRC2 enzyme assay on peptide substrates
Assay type: biochemical
Conditions: PRC2 enzyme assays on peptide substrates; 4 nM enzyme, 30 min preincubation at 25° C.; read-out: EZH2 IC50

EZH2, sequence (Q15910 other isoform, or with tags, fused parts or gaps): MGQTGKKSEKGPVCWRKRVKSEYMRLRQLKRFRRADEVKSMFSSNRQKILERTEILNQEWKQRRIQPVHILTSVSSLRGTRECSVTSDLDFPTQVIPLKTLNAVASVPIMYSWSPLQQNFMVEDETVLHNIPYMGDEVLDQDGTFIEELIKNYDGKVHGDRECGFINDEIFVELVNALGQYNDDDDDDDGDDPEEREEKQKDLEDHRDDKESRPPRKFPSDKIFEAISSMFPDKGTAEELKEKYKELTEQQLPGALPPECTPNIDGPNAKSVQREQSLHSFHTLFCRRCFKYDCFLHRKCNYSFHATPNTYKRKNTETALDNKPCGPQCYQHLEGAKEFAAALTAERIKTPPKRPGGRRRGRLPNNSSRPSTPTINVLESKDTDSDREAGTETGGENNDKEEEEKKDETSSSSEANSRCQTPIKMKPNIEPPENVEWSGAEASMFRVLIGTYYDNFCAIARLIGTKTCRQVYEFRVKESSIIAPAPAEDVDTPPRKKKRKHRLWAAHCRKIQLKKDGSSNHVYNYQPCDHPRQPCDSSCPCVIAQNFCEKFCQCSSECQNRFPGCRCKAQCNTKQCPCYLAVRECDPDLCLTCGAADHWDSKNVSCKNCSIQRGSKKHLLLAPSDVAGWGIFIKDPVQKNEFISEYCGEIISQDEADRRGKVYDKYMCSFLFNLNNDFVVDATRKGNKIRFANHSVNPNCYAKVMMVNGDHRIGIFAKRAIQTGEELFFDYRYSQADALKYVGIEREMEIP
EZH2, sequence (O75530 whole entry partner): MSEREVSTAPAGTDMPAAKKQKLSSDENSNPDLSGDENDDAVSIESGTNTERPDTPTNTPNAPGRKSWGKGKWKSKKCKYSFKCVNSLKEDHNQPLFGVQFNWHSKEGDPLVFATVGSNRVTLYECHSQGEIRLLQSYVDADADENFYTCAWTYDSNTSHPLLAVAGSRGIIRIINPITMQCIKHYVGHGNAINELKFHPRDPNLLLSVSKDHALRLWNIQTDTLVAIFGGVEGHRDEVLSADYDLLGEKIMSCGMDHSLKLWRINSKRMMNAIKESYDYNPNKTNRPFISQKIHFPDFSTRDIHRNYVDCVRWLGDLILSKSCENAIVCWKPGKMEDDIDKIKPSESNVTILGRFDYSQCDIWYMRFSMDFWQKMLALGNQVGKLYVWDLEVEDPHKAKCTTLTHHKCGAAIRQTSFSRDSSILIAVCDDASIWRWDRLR
EZH2, sequence (Q15022 whole entry partner): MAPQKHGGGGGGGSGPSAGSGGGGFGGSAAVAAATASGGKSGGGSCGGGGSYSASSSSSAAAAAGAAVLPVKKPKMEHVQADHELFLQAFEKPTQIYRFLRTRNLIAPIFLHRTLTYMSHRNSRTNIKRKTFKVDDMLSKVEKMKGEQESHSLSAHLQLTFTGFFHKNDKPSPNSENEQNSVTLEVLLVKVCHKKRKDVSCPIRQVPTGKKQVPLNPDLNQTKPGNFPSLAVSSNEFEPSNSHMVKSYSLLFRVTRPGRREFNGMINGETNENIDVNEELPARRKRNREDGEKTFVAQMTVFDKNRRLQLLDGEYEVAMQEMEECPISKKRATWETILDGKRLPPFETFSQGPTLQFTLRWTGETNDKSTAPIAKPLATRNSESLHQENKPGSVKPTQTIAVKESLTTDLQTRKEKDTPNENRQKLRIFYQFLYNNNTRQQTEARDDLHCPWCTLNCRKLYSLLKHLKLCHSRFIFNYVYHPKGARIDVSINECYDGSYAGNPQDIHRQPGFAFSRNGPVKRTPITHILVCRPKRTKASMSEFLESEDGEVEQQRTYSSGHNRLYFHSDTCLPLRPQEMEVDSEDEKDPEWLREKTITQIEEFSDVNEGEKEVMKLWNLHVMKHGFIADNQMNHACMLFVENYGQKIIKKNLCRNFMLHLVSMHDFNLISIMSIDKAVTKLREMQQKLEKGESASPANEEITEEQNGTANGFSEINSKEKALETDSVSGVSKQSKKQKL
EZH2, sequence (Q09028 whole entry partner): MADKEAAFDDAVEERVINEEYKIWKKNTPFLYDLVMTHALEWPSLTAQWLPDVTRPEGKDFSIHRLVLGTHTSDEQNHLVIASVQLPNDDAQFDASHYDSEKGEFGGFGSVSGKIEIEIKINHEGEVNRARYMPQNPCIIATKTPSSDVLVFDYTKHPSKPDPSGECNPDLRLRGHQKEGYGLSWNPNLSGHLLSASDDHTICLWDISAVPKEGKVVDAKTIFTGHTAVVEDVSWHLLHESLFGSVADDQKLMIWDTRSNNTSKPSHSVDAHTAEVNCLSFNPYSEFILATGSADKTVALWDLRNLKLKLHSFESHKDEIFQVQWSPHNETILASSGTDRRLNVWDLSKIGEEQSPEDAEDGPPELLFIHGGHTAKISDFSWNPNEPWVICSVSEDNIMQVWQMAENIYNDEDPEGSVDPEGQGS

Cc1cc(C)c(CNC(=O)c2cc(C3CC(C)(C)NC(C)(C)C3)cc3c2cnn3C2CCCC2)c(=O)[nH]1 [Compound D-3, 1-cyclopentyl-N-((4,6-dimethyl-2-oxo-1,2-dihydropyridin-3-yl)methyl)-6-(2,2,6,6-tetramethylpiperidin-4-yl)-1H-indazole-4-carboxamide]
IC50: < 300 nM

CC(=O)N1CC=C(c2cc(C(=O)NCc3c(C)cc(C)[nH]c3=O)c3cnn(C4CCCC4)c3c2)CC1 [Compound D-4, 6-(1-acetyl-1,2,3,6-tetrahydropyridin-4-yl)-1-cyclopentyl-N-((4,6-dimethyl-2-oxo-1,2-dihydropyridin-3-yl)methyl)-1H-indazole-4-carboxamide]
IC50: < 300 nM

Cc1cc(C)c(CNC(=O)c2cc(C3=CCN(C(=O)C4CCN(C)CC4)CC3)cc3c2cnn3C2CCCC2)c(=O)[nH]1 [Compound D-5, 1-cyclopentyl-N-((4,6-dimethyl-2-oxo-1,2-dihydropyridin-3-yl)methyl)-6-(1-(1-methylpiperidine-4-carbonyl)-1,2,3,6-tetrahydropyridin-4-yl)-1H-indazole-4-carboxamide]
IC50: < 300 nM

Cc1cc(C)c(CNC(=O)c2cc(CN3CCN(C)CC3)cc3c2cnn3C2CCCC2)c(=O)[nH]1 [Compound D-7]
IC50: < 300 nM

Cc1cc(C)c(CNC(=O)c2cc(CO)cc3c2cnn3C2CCCC2)c(=O)[nH]1 [Compound D-8, 1-cyclopentyl-N-((4,6-dimethyl-2-oxo-1,2-dihydropyridin-3-yl)methyl)-6-(hydroxymethyl)-1H-indazole-4-carboxamide]
IC50: 300 to 1000 nM

Cc1cc(C)c(CNC(=O)c2cc(Cl)cc3c2cnn3C2CCCC2)c(=O)[nH]1 [Compound D-10, 6-chloro-1-cyclopentyl-N-((4,6-dimethyl-2-oxo-1,2-dihydropyridin-3-yl)methyl)-1H-indazole-4-carboxamide]
IC50: < 300 nM

Cc1cc(C)c(CNC(=O)c2cc(C(F)(F)F)cc3c2cnn3C2CCCC2)c(=O)[nH]1 [Compound D-11, 1-cyclopentyl-N-((4,6-dimethyl-2-oxo-1,2-dihydropyridin-3-yl)methyl)-6-(trifluoromethyl)-1H-indazole-4-carboxamide]
IC50: 300 to 1000 nM

Cc1cc(C)c(CNC(=O)c2cc(Br)cc3c2cnn3C2CCN(C(=O)OC(C)(C)C)CC2)c(=O)[nH]1 [Compound D-12, tert-butyl 4-(6-bromo-4-(((4,6-dimethyl-2-oxo-1,2-dihydropyridin-3-yl)methyl)carbamoyl)-1H-indazol-1-yl)piperidine-1-carboxylate]
IC50: < 300 nM

Cc1cc(C)c(CNC(=O)c2cc(Br)cc3c2cnn3C2CCN(C(=O)C(C)(C)C)CC2)c(=O)[nH]1 [Compound D-13]
IC50: < 300 nM

Cc1cc(C)c(CNC(=O)c2cc(Br)cc3c2cnn3C2CCN(C(=O)C3CNC3)CC2)c(=O)[nH]1 [Compound D-14, 1-(1-(azetidine-3-carbonyl)piperidin-4-yl)-6-bromo-N-((4,6-dimethyl-2-oxo-1,2-dihydropyridin-3-yl)methyl)-1H-indazole-4-carboxamide]
IC50: < 300 nM

Cc1cc(C)c(CNC(=O)c2cc(Br)cc3c2cnn3C2CCN(Cc3ccccc3)CC2)c(=O)[nH]1 [Compound D-15, 1-(1-benzylpiperidin-4-yl)-6-bromo-N-((4,6-dimethyl-2-oxo-1,2-dihydropyridin-3-yl)methyl)-1H-indazole-4-carboxamide]
IC50: 300 to 1000 nM

Cc1cc(C)c(CNC(=O)c2cc(Br)cc3c2cnn3C2CCN(C3CCN(C)CC3)CC2)c(=O)[nH]1 [Compound D-16, 6-bromo-N-((4,6-dimethyl-2-oxo-1,2-dihydropyridin-3-yl)methyl)-1-(1′-methyl-[1,4′-bipiperidin]-4-yl)-1H-indazole-4-carboxamide]
IC50: < 300 nM

Cc1cc(CN(C)C)c(CNC(=O)c2cc(Br)cc3c2cnn3C2CCCC2)c(=O)[nH]1 [Compound D-17, 6-bromo-1-cyclopentyl-N-((4-((dimethylamino)methyl)-6-methyl-2-oxo-1,2-dihydropyridin-3-yl)methyl)-1H-indazole-4-carboxamide]
IC50: < 300 nM
